In patent publication US12637440B2, “Amide derivative useful as diacylglycerol acyltransferase 2 inhibitor, and use thereof” (LG CHEM, LTD., priority 2019, dated 2026):

biological target: T1, Recombinant human DGAT2 protein (Homo sapiens, UniProt Q96PD7); assay: Measurement of inhibitory effect against DGAT2 enzyme activity (SPA, Phospholipid FlashPlate, [14C]-TG production); format: biochemical; details: concentration inhibiting [14C]-labeled triacyl glycerol (TG) production by 50%; 2 μg DGAT2-membrane protein from Sf-21 cells, 37° C.
T1 construct: FLAG (DYKDDDDK); (N); made in house; host or cells: Sf-21 insect cells (BacPAK baculovirus system); used as a membrane preparation
T1 sequence (Q96PD7 1-388): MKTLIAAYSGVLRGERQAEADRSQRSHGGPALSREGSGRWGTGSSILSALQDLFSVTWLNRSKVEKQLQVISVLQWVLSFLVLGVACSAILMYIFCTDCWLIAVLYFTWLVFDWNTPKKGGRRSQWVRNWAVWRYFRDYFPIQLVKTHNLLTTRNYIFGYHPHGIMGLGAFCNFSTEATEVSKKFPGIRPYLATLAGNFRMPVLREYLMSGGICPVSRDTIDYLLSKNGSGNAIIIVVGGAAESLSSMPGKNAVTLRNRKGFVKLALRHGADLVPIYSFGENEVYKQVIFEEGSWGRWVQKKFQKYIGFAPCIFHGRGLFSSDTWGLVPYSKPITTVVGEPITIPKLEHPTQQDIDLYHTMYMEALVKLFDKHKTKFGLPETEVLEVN
Protocol: Experimental Example: Measurement of Inhibitory Effect Against DGAT2 Enzyme Activity
In order to prepare the pBacPAK9-DGAT2, which is DGAT2 expression vector, the human DGAT2 gene amplified by polymerase chain reaction (PCR) was cloned into the EcoR1 and Xho1 sites of the pBacPAK9 (clonctech) vector. The nucleotide sequence of the primers used in PCR was the forward primer 5′ […] and the reverse primer 5′ […]. The composition of the reaction solution was to contain 50 ng of cDNA clone (OriGene), 200 μM of dATP, dCTP, dTTP, dGTP, 200 nM of each primer, 1 unit of Tag DNA Polymerase (Toyobo), 1×PCR buffer, and the final volume was adjusted to 20 μl. The reaction conditions were denatured at 95° C. for 5 minutes, followed by 30 times of 94° C. for 20 seconds, 60° C. for 20 seconds, and 72° C. for 90 seconds, followed by further reaction at 72° C. for 7 minutes.
Recombinant human DGAT2 protein was expressed in Sf-21 cells, which are insect cells, by using the BacPack baculovirus expression system (Clontech). The brief manufacturing process is as follows. First, the pBacPAK9-DGAT2 expression vector was transfected with BacPAK6 virus DNA (Bsu36I digest) into sf21 cells using Bacfectin to prepare a recombinant DGAT2 expressing baculovirus. The thus prepared baculovirus was infected with Sf-21 cells at 10 MOI (multiplicity of infection), and after 72 hours, infected insect cells were collected and membrane proteins were isolated. For membrane protein separation, the cell pellet was dissolved in a sucrose solution containing 250 mM sucrose, 10 mM Tris (pH 7.4), and 1 mM ethylenediamine-tetraacetic acid (EDTA), and then homogenized by using a dounce homogenizer, and the supernatant was taken by centrifuging at 600×g for 15 minutes, and centrifuged at 100,000×g for 1 hour to discard the supernatant, and the remaining pellet was resuspended in 20 mM HEPES buffer (pH 7.4). The prepared DGAT2 overexpressing membrane protein was dispensed in 100 μl and stored at −80° C. until use. Protein concentration was quantified by using the BCA Protein Assay Kit (Thermo Scientific).
In vitro DGAT2 analysis was performed using a Phospholipid Flash Plate (PerkinElmer) based on the principle of SPA (Scintillation Proximity Assay). First, DGAT2 inhibition compounds serially diluted 5 times from 3 nM to 10 μM (final concentration, 1% DMSO) were mixed in a buffer solution containing 2 μg DGAT2-membrane protein and 20 mM HEPES, 20 mM MgCl2, 1 mg/mL BSA, 50 μM 1,2 sn-oleoyl glycerol (Sigma), put in a 96-well flash plate (FlashPlate) and reacted at 37° C. for 20 minutes, and then 1 μM [14C] ole oil CoA (PerkinElmer, NEC651050UC) was added to be a final volume of 100 μL and further reacted at 37° C. for 15 minutes. After the enzymatic reaction was completed, 100 μL of isopropanol was added, the plate was sealed with a film, and the plate was shaken slowly in a plate shaker. The next day, the amplified scintillation signal (cpm) in Topcounter (Packard) was measured to measure the degree of production of [14C]-labeled triacyl glycerol (TG) as a reaction product. The measured value when the compound was not treated was used as a positive control, and the measured value of the compound treated group was calculated as a relative % to measure the inhibition effect of the compound on TG production.

Row | IC50 | Compound
1 | 4800 nM | CCOc1ccccc1O[C@@H]1CCCN(c2cncc(NC(=O)C34CCC(C(=O)O)(CC3)CC4)n2)C1 [Example 21, (R)-4-((6-(3-(2-ethoxyphenoxy)piperidin-1-yl)pyrazin-2-yl)carbamoyl)bicyclo[2.2.2]octane-1-carboxylic acid]
2 | 230 nM | CCOc1ccccc1O[C@@H]1CCCN(c2cncc(NC(=O)c3cccc(OC)c3)n2)C1 [Example 8, (R)—N-(6-(3-(2-ethoxyphenoxy)piperidin-1-yl)pyrazin-2-yl)-3-methoxybenzamide]
3 | 280 nM | CCOc1ccccc1O[C@@H]1CCCN(c2cncc(NC(=O)CCc3cc(C)c(C(=O)O)c(C)c3)n2)C1 [Example 55, (R)-4-(3-((6-(3-(2-ethoxyphenoxy)piperidin-1-yl)pyrazin-2-yl)amino)-3-oxopropyl)-2,6-dimethylbenzoic acid]
4 | 180 nM | CCOc1ccccc1O[C@@H]1CCCN(c2cncc(NC(=O)C(C)(C)c3ccccc3)n2)C1 [Example 31, (R)—N-(6-(3-(2-ethoxyphenoxy)piperidin-1-yl)pyrazin-2-yl)-2-methyl-2-phenylpropanamide]
5 | 250 nM | CCOc1ccccc1O[C@@H]1CCCN(c2cccc(NC(=O)Cc3ccc(CC(C)(C)C(=O)O)cc3)n2)C1 [Example 71]
6 | 190 nM | CC(C)(C(=O)O)c1ccc(CCC(=O)Nc2cncc(N3CCC[C@@H](Oc4ccccc4OCCF)C3)n2)cc1 [Example 93, (R)-2-(4-(3-((6-(3-(2-(2-fluoroethoxy)phenoxy)piperidin-1-yl)pyrazin-2-yl)amino)-3-oxopropyl)phenyl)-2-methylpropanoic acid]
7 | 690 nM | CCOc1ccccc1O[C@@H]1CCCN(c2cncc(NC(=O)C(C)(C)Cc3ccc(C(C)(C)C(=O)O)cc3)n2)C1 [Example 111, (R)-2-(4-(3-((6-(3-(2-ethoxyphenoxy)piperidin-1-yl)pyrazin-2-yl)amino)-2,2-dimethyl-3-oxopropyl)phenyl)-2-methylpropanoic acid]
8 | 200 nM | CCOc1ccccc1O[C@@H]1CCCN(c2cncc(NC(=O)Cc3ccc(OC(C)(C)C(=O)O)cc3)n2)C1 [Example 38]
9 | 45 nM | CCOc1ccccc1O[C@@H]1CCCN(c2cncc(NC(=O)c3ccc(Cl)cc3)n2)C1 [Example 7, (R)-4-chloro-N-(6-(3-(2-ethoxyphenoxy)piperidin-1-yl)pyrazin-2-yl)benzamide]
10 | 150 nM | CCOc1ccccc1O[C@@H]1CCCN(c2cncc(NC(=O)CCc3ccc(C(=O)O)c(C)c3)n2)C1 [Example 45, (R)-4-(3-((6-(3-(2-ethoxyphenoxy)piperidin-1-yl)pyrazin-2-yl)amino)-3-oxopropyl)-2-methylbenzoic acid]
11 | 2700 nM | CCOc1ccccc1O[C@@H]1CCCN(c2cccc(NC(=O)Cc3ccc(CC(=O)O)cc3)n2)C1 [Example 66, (R)-2-(4-(2-((6-(3-(2-ethoxyphenoxy)piperidin-1-yl)pyridin-2-yl)amino)-2-oxoethyl)phenyl)acetic acid]
12 | 310 nM | CCOc1ccccc1O[C@@H]1CCCN(c2cncc(NC(=O)CCc3ccc(C(=O)O)c(Cl)c3)n2)C1 [Example 47, (R)-2-chloro-4-(3-((6-(3-(2-ethoxyphenoxy)piperidin-1-yl)pyrazin-2-yl)amino)-3-oxopropyl)benzoic acid]
13 | 140 nM | CCOc1cccnc1O[C@@H]1CCCN(c2nccc(NC(=O)Cc3ccc(CC(C)(C)C(=O)O)cc3)n2)C1 [Example 115, (R)-3-(4-(2-((2-(3-((3-ethoxypyridin-2-yl)oxy)piperidin-1-yl)pyrimidin-4-yl)amino)-2-oxoethyl)phenyl)-2,2-dimethylpropanoic acid]
14 | 130 nM | CCOc1cccnc1O[C@@H]1CCCN(c2cncc(NC(=O)[C@@H]3CCCN(c4cccc(CC(C)(C)C(=O)O)c4)C3)n2)C1 [Example 76]
15 | 170 nM | CCOc1ccccc1O[C@@H]1CCCN(c2cncc(NC(=O)CCc3ccc(C(=O)O)c(F)c3)n2)C1 [Example 44, (R)-4-(3-((6-(3-(2-ethoxyphenoxy)piperidin-1-yl)pyrazin-2-yl)amino)-3-oxopropyl)-2-fluorobenzoic acid]
16 | 330 nM | CCOc1ccccc1O[C@@H]1CCCN(c2cncc(NC(=O)C(C)Cc3ccc(C(=O)O)cc3)n2)C1 (stereo partly drawn) [Example 43, 4-(3-((6-((R)-3-(2-ethoxyphenoxy)piperidin-1-yl)pyrazin-2-yl)amino)-2-methyl-3-oxopropyl)benzoic acid]
17 | 60 nM | CCOc1ccccc1O[C@@H]1CCCN(c2nccc(NC(=O)Cc3ccc(CC(C)(C)C(=O)O)cc3)n2)C1 [Example 112, (R)-3-(4-(2-((2-(3-(2-ethoxyphenoxy)piperidin-1-yl)pyrimidin-4-yl)amino)-2-oxoethyl)phenyl)-2,2-dimethylpropanoic acid]
18 | 7400 nM | CCOc1ccccc1O[C@@H]1CCCN(c2cncc(N3C(=O)CC(C)(C)C3=O)n2)C1 [Example 23, (R)-1-(6-(3-(2-ethoxyphenoxy)piperidin-1-yl)pyrazin-2-yl)-3,3-dimethylpyrrolidine-2,5-dione]
19 | 38 nM | CCOc1cccnc1O[C@@H]1CCCN(c2cncc(NC(=O)Cc3ccc(CC(C)(C)C(=O)O)cc3)n2)C1 [Example 116, (R)-3-(4-(2-((6-(3-((3-ethoxypyridin-2-yl)oxy)piperidin-1-yl)pyrazin-2-yl)amino)-2-oxoethyl)phenyl)-2,2-dimethylpropanoic acid]
20 | 45 nM | CCOc1ccccc1O[C@@H]1CCCN(c2cncc(NC(=O)Nc3cc(C(F)(F)F)cc(C(F)(F)F)c3)n2)C1 [Example 1, (R)-1-(3,5-bis(trifluoromethyl)phenyl)-3-(6-(3-(2-ethoxyphenoxy)piperidin-1-yl)pyrazin-2-yl)urea]
21 | 630 nM | CCOc1ccccc1O[C@@H]1CCCN(c2cccc(NC(=O)Cc3ccc(C(C)(C)C(=O)O)cc3)n2)C1 [Example 68, (R)-2-(4-(2-((6-(3-(2-ethoxyphenoxy)piperidin-1-yl)pyridin-2-yl)amino)-2-oxoethyl)phenyl)-2-methylpropanoic acid]
22 | 100 nM | CCOc1cccnc1O[C@@H]1CCCN(c2cncc(NC(=O)CCc3cccc(CC(C)(C)C(=O)O)c3)n2)C1 [Example 128, (R)-3-(3-(3-((6-(3-((3-ethoxypyridin-2-yl)oxy)piperidin-1-yl)pyrazin-2-yl)amino)-3-oxopropyl)phenyl)-2,2-dimethylpropanoic acid]
23 | 770 nM | CCOc1ccccc1O[C@@H]1CCCN(c2cncc(NC(=O)C(C)(C)c3ccc(C(C)(C)C(=O)O)cc3)n2)C1 [Example 39, (R)-2-(4-(1-((6-(3-(2-ethoxyphenoxy)piperidin-1-yl)pyrazin-2-yl)amino)-2-methyl-1-oxopropan-2-yl)phenyl)-2-methylpropanoic acid]

Row | Compound | IC50
24 | CC(C)(Cc1ccc(CC(=O)Nc2cncc(N3CCC[C@@H](Oc4ccccc4OC4CCC4)C3)n2)cc1)C(=O)O [Example 96, (R)-3-(4-(2-((6-(3-(2-cyclobutoxyphenoxy)piperidin-1-yl)pyrazin-2-yl)amino)-2-oxoethyl)phenyl)-2,2-dimethylpropanoic acid] | 200 nM
